Experimental data from ChEMBL document CHEMBL4177573 (Bioorg Med Chem, 2017).

Key:
[1] = target: T1, Neuropeptide Y receptor type 2 (Homo sapiens, UniProt P49146); assay: Displacement of [125I]-PYY from human neuropeptide Y2 receptor expressed in CHO cell membranes incubated for 60 mins by TopCount based method
T1 sequence (P49146 whole entry): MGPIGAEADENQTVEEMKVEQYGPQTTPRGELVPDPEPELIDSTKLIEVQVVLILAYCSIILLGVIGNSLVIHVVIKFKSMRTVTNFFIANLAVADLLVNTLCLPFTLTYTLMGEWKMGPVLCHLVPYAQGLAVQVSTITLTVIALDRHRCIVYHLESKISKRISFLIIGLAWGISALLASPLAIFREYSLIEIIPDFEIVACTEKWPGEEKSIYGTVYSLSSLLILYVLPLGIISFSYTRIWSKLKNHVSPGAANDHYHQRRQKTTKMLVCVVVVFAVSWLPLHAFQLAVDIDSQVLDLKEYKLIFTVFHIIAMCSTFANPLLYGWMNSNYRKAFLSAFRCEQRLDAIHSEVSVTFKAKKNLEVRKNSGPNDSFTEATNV

[2] = target: T1, Neuropeptide Y receptor type 2; assay: Agonist activity at human neuropeptide Y2 receptor expressed in CHO cell membranes assessed as stimulation of [35S]GTPgammaS binding incubated for 120 mins by liquid scintillation counting method; assay type: functional
Mus musculus [3] = assay: Anorectic activity in C57BL/6J mouse assessed as inhibition of food intake at 0.03 mg/kg/day, sc for 3 days dosed as continuous administration by infusion using osmotic pump; assay type: functional; settings: 72 h
Mus musculus [4] = assay: Anorectic activity in C57BL/6J mouse assessed as inhibition of food intake at 0.3 mg/kg/day, sc dosed as […] and measured after 12 hrs; assay type: functional
Mus musculus [5] = assay: Anorectic activity in C57BL/6J mouse assessed as inhibition of food intake at 0.3 mg/kg/day, sc dosed as […] and measured after 24 hrs; assay type: functional
Mus musculus [6] = assay: Antiobesity activity in DIO C57BL/6J mouse assessed as reduction in body weight at 0.01 mg/kg, sc for 2 weeks dosed as continuous administration by infusion of osmotic pumps; assay type: functional; settings: 336 h
Mus musculus [7] = assay: Antiobesity activity in DIO C57BL/6J mouse assessed as reduction in body weight at 1 mg/kg, sc […] for 2 weeks dosed by infusion of osmotic pumps; assay type: functional; settings: 336 h
Mus musculus [8] = assay: Drug level in C57BL/6J mouse at 1 mg/kg, iv measured during 5 mins to 24 hrs by LC/MS/MS method; assay type: ADME, organism-based; settings: in vivo, read-out: Drug uptake
[9] = AUC (0 to 24 hrs) in C57BL/6J mouse at 1 mg/kg, iv measured during 5 mins to 24 hrs by LC/MS/MS method; assay type: ADME, organism-based; set-up: dose 1 mg/kg, time < 24 hr, route intravenous; settings: in vivo
[10] = MRT in C57BL/6J mouse at 1 mg/kg, iv measured during 5 mins to 24 hrs by LC/MS/MS method; assay type: ADME, organism-based; settings: in vivo
[11] = Volume of distribution at steady state in C57BL/6J mouse at 1 mg/kg, iv measured during 5 mins to 24 hrs by LC/MS/MS method; assay type: ADME, organism-based; settings: in vivo, read-out: Vdss
[12] = Total clearance in C57BL/6J mouse at 1 mg/kg, iv measured during 5 mins to 24 hrs by LC/MS/MS method; assay type: ADME, organism-based; settings: in vivo
[13] = Cmax in C57BL/6J mouse at 1 mg/kg, sc measured during 5 mins to 24 hrs by LC/MS/MS method; assay type: ADME, organism-based; set-up: dose 1 mg/kg, route subcutaneous; settings: in vivo
[14] = Tmax in C57BL/6J mouse at 1 mg/kg, sc measured during 5 mins to 24 hrs by LC/MS/MS method; assay type: ADME, organism-based; settings: in vivo
[15] = AUC (0 to 24 hrs) in C57BL/6J mouse at 1 mg/kg, sc measured during 5 mins to 24 hrs by LC/MS/MS method; assay type: ADME, organism-based; set-up: time < 24 hr, dose 1 mg/kg, route subcutaneous; settings: in vivo
[16] = MRT in C57BL/6J mouse at 1 mg/kg, sc measured during 5 mins to 24 hrs by LC/MS/MS method; assay type: ADME, organism-based; settings: in vivo
[17] = Bioavailability in C57BL/6J mouse at 1 mg/kg, sc measured during 5 mins to 24 hrs by LC/MS/MS method; assay type: ADME, organism-based; settings: in vivo
Mus musculus [18] = assay: Anorectic activity in C57BL/6J mouse assessed as inhibition of food intake at 0.1 mg/kg/day, sc for 3 days dosed as continuous administration by infusion using osmotic pump; assay type: functional; settings: 72 h
Mus musculus [19] = assay: Anorectic activity in C57BL/6J mouse assessed as inhibition of food intake at 0.3 mg/kg/day, sc for 3 days dosed as continuous administration by infusion using osmotic pump; assay type: functional; settings: 72 h
Mus musculus [20] = assay: Anorectic activity in C57BL/6J mouse assessed as inhibition of food intake at 1 mg/kg/day, sc for 3 days dosed as continuous administration by infusion using osmotic pump; assay type: functional; settings: 72 h

| SMILES | IC50 [1] | EC50 [2] | concentration (Mus musculus [8]) | AUC(0-t) at 24 h [9] | MRT [10] | Vd [11] | clearance [12] | Cmax [13] | Tmax [14] | AUC(0-t) at 24 h [15] | MRT [16] | bioavailability [17] | inhibition in vivo at 0.03 mg/kg/day (Mus musculus [3]) | inhibition in vivo at 0.3 mg/kg/day (Mus musculus [4]) | inhibition in vivo at 0.3 mg/kg/day (Mus musculus [5]) | inhibition in vivo at 0.01 mg/kg (Mus musculus [6]) | inhibition in vivo at 1 mg/kg (Mus musculus [7]) | inhibition in vivo at 0.1 mg/kg/day (Mus musculus [18]) | inhibition in vivo at 0.3 mg/kg/day (Mus musculus [19]) | inhibition in vivo at 1 mg/kg/day (Mus musculus [20]) |
| --- | --- | --- | --- | --- | --- | --- | --- | --- | --- | --- | --- | --- | --- | --- | --- | --- | --- | --- | --- | --- |
| CC[C@@](C)(NC(=O)[C@H](CO)NC(C)=O)C(=O)N[C@@H](CCCNC(=N)N)C(=O)N[C@@H](Cc1ccncc1)C(=O)N[C@@H](CC1CCCCC1)C(=O)NC(C)(C)C(=O)N[C@@H](CC(N)=O)C(=O)N[C@@H](CCCCN)C(=O)NC(C)(C)C(=O)N[C@H](C(=O)N[C@@H](CCCNC(=N)N)C(=O)N[C@@H](CCC(N)=O)C(=O)N[C@@H](CCCNC(=N)N)C(=O)N[C@@H](CC1CCCCC1)C(N)=O)[C@@H](C)O | 0.3 nM | 0.11 nM | – | – | – | – | – | – | – | – | – | – | 25% | – | – | – | – | 64% | – | – |
| CC[C@@](C)(NC(=O)[C@H]1CCCN1C(=O)[C@H](CO)NC(C)=O)C(=O)N[C@@H](Cc1cnc[nH]1)C(=O)N[C@@H](CC1CCCCC1)C(=O)N[C@@H](CC1CCCCC1)C(=O)N[C@@H](CC(N)=O)C(=O)N[C@@H](CC(C)C)C(=O)NC(C)(C)C(=O)N[C@H](C(=O)N[C@@H](CCCNC(=N)N)C(=O)N[C@@H](CCC(N)=O)C(=O)N[C@@H](CCCNC(=N)N)C(=O)N[C@@H](CC1CCCCC1)C(N)=O)[C@@H](C)O | 3.8 nM | 0.5 nM | – | – | – | – | – | – | – | – | – | – | – | – | – | – | – | – | 33% | – |
| CC(C)C[C@H](NC(=O)[C@H](CC(N)=O)NC(=O)[C@H](CC1CCCCC1)NC(=O)[C@H](CC1CCCCC1)NC(=O)[C@H](Cc1cnc[nH]1)NC(=O)[C@H](CCCNC(=N)N)NC(=O)[C@H]1CCCN1C(=O)[C@H](CO)NC(=O)CCC(=O)O)C(=O)NC(C)(C)C(=O)N[C@H](C(=O)N[C@@H](CCCNC(=N)N)C(=O)N[C@@H](CCC(N)=O)C(=O)N[C@@H](CCCNC(=N)N)C(=O)N[C@@H](CC1CCCCC1)C(N)=O)[C@@H](C)O | 2.3 nM | 0.4 nM | – | – | – | – | – | – | – | – | – | – | – | – | – | – | – | – | – | 103% |

More lines, main results first:

| IC50 [1] | EC50 [2] | concentration (Mus musculus [8]) | AUC(0-t) at 24 h [9] | MRT [10] | Vd [11] | clearance [12] | Cmax [13] | Tmax [14] | AUC(0-t) at 24 h [15] | MRT [16] | bioavailability [17] | SMILES | inhibition in vivo at 0.03 mg/kg/day (Mus musculus [3]) | inhibition in vivo at 0.3 mg/kg/day (Mus musculus [4]) | inhibition in vivo at 0.3 mg/kg/day (Mus musculus [5]) | inhibition in vivo at 0.01 mg/kg (Mus musculus [6]) | inhibition in vivo at 1 mg/kg (Mus musculus [7]) | inhibition in vivo at 0.1 mg/kg/day (Mus musculus [18]) | inhibition in vivo at 0.3 mg/kg/day (Mus musculus [19]) | inhibition in vivo at 1 mg/kg/day (Mus musculus [20]) |
| --- | --- | --- | --- | --- | --- | --- | --- | --- | --- | --- | --- | --- | --- | --- | --- | --- | --- | --- | --- | --- |
| 0.46 nM | 0.17 nM | 1660 nM | 0.435 µM·h | 21 min | 0.41 L/kg | 19.5 mL/min/kg | 666 nM | 15 min | 0.469 µM·h | 31.2 min | 108% | CC[C@](C)(NC(=O)[C@H](CC1CCCCC1)NC(=O)[C@H](Cc1ccncc1)NC(=O)[C@](C)(CC)NC(=O)[C@H]1C[C@H](O)CN1C(=O)[C@H](CO)NC(C)=O)C(=O)N[C@@H](CC(N)=O)C(=O)N[C@@H](CCCCN)C(=O)NC(C)(C)C(=O)N[C@H](C(=O)N[C@@H](CCCNC(=N)N)C(=O)N[C@@H](CCC(N)=O)C(=O)N[C@@H](CCCNC(=N)N)C(=O)N[C@@H](CC1CCCCC1)C(N)=O)[C@@H](C)O | 56% | 38% | 23% | 5% | 1.7% | – | – | – |
| 1.8 nM | 0.28 nM | 1270 nM | 0.232 µM·h | 12 min | 0.5 L/kg | 41 mL/min/kg | 227 nM | 15 min | 0.125 µM·h | 22.2 min | 53.7% | CC[C@](C)(NC(=O)[C@H]1CCCN1C(=O)[C@H](CO)NC(C)=O)C(=O)N[C@@H](Cc1ccncc1)C(=O)N[C@@H](CC1CCCCC1)C(=O)NC(C)(C)C(=O)N[C@@H](CC(N)=O)C(=O)N[C@@H](CCCCN)C(=O)NC(C)(C)C(=O)N[C@H](C(=O)N[C@@H](CCCNC(=N)N)C(=O)N[C@@H](CCC(N)=O)C(=O)N[C@@H](CCCNC(=N)N)C(=O)N[C@@H](CC1CCCCC1)C(N)=O)[C@@H](C)O | 46% | 22% | 7% | – | – | 68% | – | – |
